Target: GST-tagged truncated human mutant G2019S LRRK2 (Homo sapiens, UniProt Q5S007, G2019S)
Test: LRRK2 G2019S Km ATP LanthaScreen assay
Type: biochemical
Conditions: 134 μM ATP (Km ATP), LRRKtide substrate, mean IC50 values; read-out: LRRK2 pIC50 (converted)
Outline: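 LanthaScreen TR-FRET read with fluorescein-LRRKtide and 134 μM ATP (Km) in Tris pH 8.5/10 mM MgCl2 buffer. The enzyme was preincubated 15 min with compound at room temperature, and the reaction ran 90 min at ambient temperature. Stopped with EDTA plus Tb anti-phospho-LRRKtide antibody; the 520/495 nm ratio gave a 4-parameter logistic IC50, mean of several runs.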

SMILES	IC50 [nM]
Cc1nsc(Nc2ncc3ccc(N4C(=O)OC[C@@H]4C)cc3n2)c1C1CC1 [Ex-7.8, (4S)-3-{2-[(4-cyclopropyl-3-methyl-1,2-thiazol-5-yl)amino]quinazolin-7-yl}-4-methyl-1,3-oxazolidin-2-one]	11
Cc1c(Nc2ncc3ccc(N(C)C4COC4)cc3n2)cnn1C1CCOCC1 [Ex-1.47, N-7-methyl-N-2-[5-methyl-1-(oxan-4-yl)-1H-pyrazol-4-yl]-N-7-(oxetan-3-yl)quinazoline-2,7-diamine]	38.8
CC1(N2CCN(c3cc4nc(Nc5cnn(C6CC6(F)F)c5Cl)ncc4cc3Cl)CC2)COCC1O (single isomer, unassigned) [Ex-6.34, (3S,4S) or (3R,4R) 4-[4-(6-chloro-2-{[5-chloro-1-(2,2-(R) or (S)difluorocyclopropyl)-1H-pyrazol-4-yl]amino}quinazolin-7-yl)piperazin-1-yl]-4-methyloxolan-3-ol]	10.6
FC1(F)CC(N2CCN(c3cc4nc(Nc5cnn(C6CC6)c5Cl)ncc4cc3Cl)CC2)C1 [Ex-4.71, 6-chloro-N-(5-chloro-1-cyclopropyl-1H-pyrazol-4-yl)-7-(4-(3,3-difluorocyclobutyl)piperazin-1-yl)quinazolin-2-amine]	11.1
CC(C)(O)Cn1cc(Nc2ncc3cc(Cl)c(N4C[C@H]5CC[C@@H](C4)[C@@]5(C)O)cc3n2)cn1 [Ex-3.32, (8-syn)-3-(6-chloro-2-{[1-(2-hydroxy-2-methylpropyl)-1H-pyrazol-4-yl]amino}quinazolin-7-yl)-8-methyl-3-azabicyclo[3.2.1]octan-8-ol]	0.393
Cc1nsc(Nc2ncc3ccc(N4C(=O)C5CCC4C5)cc3n2)c1C (stereo not shown) [Ex-8.15, 2-{2-[(3,4-dimethyl-1,2-thiazol-5-yl)amino]quinazolin-7-yl}-2-azabicyclo[2.2.1]heptan-3-one]	2.59
N#CCCN1CCN(c2cc3nc(Nc4cnn(C5CC5)c4Cl)ncc3cc2Cl)CC1 [Ex-1.29, 3-(4-{6-chloro-2-[(5-chloro-1-cyclopropyl-1H-pyrazol-4-yl)amino]quinazolin-7-yl}piperazin-1-yl)propanenitrile]	2.78
Cc1c(Nc2ncc3cc(Cl)c(N4CCC(C)(O)CC4C)cc3n2)cnn1C1CC1 (single isomer, unassigned) [Ex-9.1, (2R,4S or 2S,4R, or 2S,4S, or 2R,4R)-1-(6-Chloro-2-((1-cyclopropyl-5-methyl-1H-pyrazol-4-yl)amino)quinazolin-7-yl)-2,4-dimethylpiperidin-4-ol]	4.68
CC1(n2ncc(Nc3ncc4cc(Cl)c(N5CCC(N6CC(F)C6)CC5)cc4n3)c2Cl)CC1 [Ex-4.39, 6-chloro-N-[5-chloro-1-(1-methylcyclopropyl)-1H-pyrazol-4-yl]-7-[4-(3-fluoroazetidin-1-yl)piperidin-1-yl]quinazolin-2-amine]	0.625
Cn1ncc(Nc2ncc3cc(Cl)c(N4CCN(C5(C)COCC5O)CC4)cc3n2)c1Cl (single isomer, unassigned) [Ex-6.28, (3S,4S) or (3R,4R) 4-(4-{6-chloro-2-[(5-chloro-1-methyl-1H-pyrazol-4-yl)amino]quinazolin-7-yl}piperazin-1-yl)-4-methyloxolan-3-ol]	0.381
CC1(N2CCN(c3cc4nc(Nc5cnn(C6(C)CC6)c5Cl)ncc4cc3Cl)CC2)COC1 [Ex-4.22, 6-chloro-N-[5-chloro-1-(1-methylcyclopropyl)-1H-pyrazol-4-yl]-7-[4-(3-methyloxetan-3-yl)piperazin-1-yl]quinazolin-2-amine]	0.625
CCNc1cc2nc(Nc3cnn(C4CCN(C5(C)COC5)CC4)c3Cl)ncc2cc1Cl [Ex-3.45, 6-chloro-N~2~-{5-chloro-1-[1-(3-methyloxetan-3-yl)piperidin-4-yl]-1H-pyrazol-4-yl}-N~7~- ethylquinazoline-2,7-diamine]	23.5
CCn1ncc(Nc2ncc3ccc(N4C(=O)CCC4C)cc3n2)c1C (single isomer, unassigned) [Ex-7.17, (R) or (S) 1-{2-[(1-ethyl-5-methyl-1H-pyrazol-4-yl)amino]quinazolin-7-yl}-5-methylpyrrolidin-2-one]	54.9
CC1(Cn2ncc(Nc3ncc4cc(Cl)c(N5CCN(C6(C)COC6)CC5)cc4n3)c2Cl)COC1 [Ex-4.52, 6-chloro-N-{5-chloro-1-[(3-methyloxetan-3-yl)methyl]-1H-pyrazol-4-yl}-7-[4-(3-methyloxetan-3-yl)piperazin-1-yl]quinazolin-2-amine]	1.89
CO[C@H]1CCN(c2cc3nc(Nc4cnn(C5(C)CC5)c4Cl)ncc3cc2Cl)C1 [Ex-4.40, 6-chloro-N-[5-chloro-1-(1-methylcyclopropyl)-1H-pyrazol-4-yl]-7-[(3S)-3-methoxypyrrolidin-1-yl]quinazolin-2-amine]	15.2
CC1CN(c2cc3nc(Nc4cnn(C5CC5)c4Cl)ncc3cc2Cl)CCN1C1COCC1O (single isomer, unassigned) [Ex-12.7, (3S,4S) or (3R, 4R)-4-((R) or (S)-4-(4-(6-chloro-2-((5-chloro-1-cyclopropyl-1H-pyrazol-4-yl)amino)quinazolin-7-yl)-2-methylpiperazin-1-yl)tetrahydrofuran-3-ol]	4.36

SMILES	IC50 [nM]
FC(F)Cn1ncc(Nc2ncc3cc(Cl)c(N4CCC(N5CCCC5)CC4)cc3n2)c1Cl [Ex-1.16, 6-chloro-N-[5-chloro-1-(2,2-difluoroethyl)-1H-pyrazol-4-yl]-7-[4-(pyrrolidin-1-yl)piperidin-1-yl]quinazolin-2-amine]	16
CC1CN(C2COCC2O)CCN1c1cc2nc(Nc3cnn(C4CC4)c3Cl)ncc2cc1Cl (single isomer, unassigned) [Ex-12.9, (3S,4S) or (3R, 4R)-4-((R) or (S)-4-(6-chloro-2-((5-chloro-1-cyclopropyl-1H-pyrazol-4-yl)amino)quinazolin-7-yl)-3-methylpiperazin-1-yl)tetrahydrofuran-3-ol]	8.64
CC(C)(O)CC(O)Cn1ncc(Nc2ncc3cc(Cl)c(N4CCC(C)(O)CC4)cc3n2)c1Cl (stereo not shown) [Ex-6.5, 1-(5-chloro-4-{[6-chloro-7-(4-hydroxy-4-methylpiperidin-1-yl)quinazolin-2-yl]amino}-1H-pyrazol-1-yl)-4-methylpentane-2,4-diol]	27.3
COC1CCC1n1ncc(Nc2ncc3cc(Cl)c(N4CCC(C)(O)CC4)cc3n2)c1C (single isomer, unassigned) [Ex-6.16, 1-(6-chloro-2-((1-((1R,2S) or (1S,2R)-2-methoxycyclobutyl)-5-methyl-1H-pyrazol-4-yl)amino)quinazolin-7-yl)-4-methylpiperidin-4-ol]	1.57
CC1(N2CCN(c3cc4nc(Nc5cnn(C6COC6)c5Cl)ncc4cc3Cl)CC2)COC1 [Ex-4.49, 6-chloro-N-[5-chloro-1-(oxetan-3-yl)-1H-pyrazol-4-yl]-7-[4-(3-methyloxetan-3-yl)piperazin-1-yl]quinazolin-2-amine]	1.87
Cc1c(Nc2ncc3ccc(N4C(=O)OC[C@H]4C)cc3n2)cnn1C1CCOCC1 [Ex-7.11, (4R)-4-methyl-3-(2-{[5-methyl-1-(oxan-4-yl)-1H-pyrazol-4-yl]amino}quinazolin-7-yl)-1,3-oxazolidin-2-one]	9.35
CC1(N2CCN(c3cc4nc(Nc5cnn(C6CC6(F)F)c5Cl)ncc4cc3Cl)CC2)COCC1O (single isomer, unassigned) [Ex-6.35, (3S,4S) or (3R,4R) 4-[4-(6-chloro-2-{[5-chloro-1-(2,2-(R) or (S)difluorocyclopropyl)-1H-pyrazol-4-yl]amino}quinazolin-7-yl)piperazin-1-yl]-4-methyloxolan-3-ol]	20.8
CCn1ncc(Nc2ncc3ccc(N4C(=O)OCC4C4CC4)cc3n2)c1C (single isomer, unassigned) [Ex-7.15, (R) or (S) 4-cyclopropyl-3-{2-[(1-ethyl-5-methyl-1H-pyrazol-4-yl)amino]quinazolin-7-yl}-1,3-oxazolidin-2-one]	9.26
F[C@H]1CN(C2COC2)CC[C@@H]1n1ncc(Nc2ncc3cc(Cl)c(N4CCC5(CC4)COC5)cc3n2)c1Cl [Ex-1.4, 6-chloro-N-{5-chloro-1-[(3S,4S)-3-fluoro-1-(oxetan-3-yl)piperidin-4-yl]-1H-pyrazol-4-yl}-7-(2-oxa-7-azaspiro[3.5]nonan-7-yl)quinazolin-2-amine]	1.54
Cc1c(Nc2ncc3cc(Cl)c(N4CCN(C5CCCC5C#N)CC4)cc3n2)cnn1C1CC1 (single isomer, unassigned) [Ex-1.7, (3S,4S or 3R,4R)-2-(4-{6-chloro-2-[(1-cyclopropyl-5-methyl-1H-pyrazol-4-yl)amino]quinazolin-7-yl}piperazin-1-yl)cyclopentane-1-carbonitrile]	6.91
Cc1cc(Nc2ncc3cc(Cl)c(N4CCC(C)(O)CC4)cc3n2)sn1 [Ex-6.8, 1-{6-chloro-2-[(3-methyl-1,2-thiazol-5-yl)amino]quinazolin-7-yl}-4-methylpiperidin-4-ol]	16.3
CCn1ncc(Nc2ncc3ccc(N4C(=O)[C@H]5CC[C@@H]4C5)nc3n2)c1C (single isomer, unassigned) [Ex-15.4, (1S,4R) or (1R,4S)-2-{2-[(1-ethyl-5-methyl-1H-pyrazol-4-yl)amino]pyrido[2,3-d]pyrimidin-7-yl}-2-azabicyclo[2.2.1]heptan-3-one]	12.5
Cc1c(Nc2ncc3cc(Cl)c(N4CCN(C5(C)COC(C)(C)C5)CC4)cc3n2)cnn1C1CC1 (single isomer, unassigned) [Ex-12.2]	0.721
CC1(n2ncc(Nc3ncc4cc(Cl)c(N5CCC(N6CC(F)(F)C6)CC5)cc4n3)c2Cl)CC1 [Ex-4.32, 6-chloro-N-[5-chloro-1-(1-methylcyclopropyl)-1H-pyrazol-4-yl]-7-[4-(3,3-difluoroazetidin-1-yl)piperidin-1-yl]quinazolin-2-amine]	2.02
CC1(n2ncc(Nc3ncc4cc(Cl)c(N5CCN(CCC#N)CC5)cc4n3)c2Cl)CC1 [Ex-3.20, 3-[4-(6-chloro-2-{[5-chloro-1-(1-methylcyclopropyl)-1H-pyrazol-4-yl]amino}quinazolin-7-yl)piperazin-1-yl]propanenitrile]	1.07

Reference: patent US20230303540A1 (Merck Sharp & Dohme LLC, priority 2020, published 2023)
